The values that follow come from publication PMC11837542, “Two NADPH-dependent 2-ketogluconate reductases involved in 2-ketogluconate assimilation in Gluconobacter sp. strain CHM43” (Applied and Environmental Microbiology, 2025).

Assay [1] concerns T1, GLF_1777 (2KGR).
T1 construct: untagged, full-length gene on plasmid pSKR57 in Gluconobacter sp; CHM43 delta-GLF_0478 (strain SKR104)
Description: NADH oxidation at […] nm, soluble cell extract of overexpressing strain. It is filed as biochemical, Gluconobacter sp. CHM43. To be noted: co-substrate 2KG; standard assay 10 mM K-2-ketogluconate, 50 mM Na-acetate pH 6.0, 25°C.

Assay [2] has as its system T1, GLF_1777 (2KGR). Description: NADPH oxidation at […] nm, soluble cell extract of overexpressing strain. The note with it: co-substrate 2KG; standard assay 10 mM K-2-ketogluconate, 50 mM Na-acetate pH 6.0, 25°C. The format is biochemical, Gluconobacter sp. CHM43.

Each structure is given as a SMILES string.

As for `NC(=O)C1=CN([C@@H]2O[C@H](COP(=O)(O)OP(=O)(O)OC[C@H]3O[C@@H](n4cnc5c(N)ncnc54)[C@H](O)[C@@H]3O)[C@@H](O)[C@H]2O)C=CC1` [NADH], the Michaelis constant (Km) with GLF_1777 (2KGR) [1] came out at 100 ± 9 µM.

For `NC(=O)C1=CN([C@@H]2O[C@H](COP(=O)(O)OP(=O)(O)OC[C@H]3O[C@@H](n4cnc5c(N)ncnc54)[C@H](OP(=O)(O)O)[C@@H]3O)[C@@H](O)[C@H]2O)C=CC1` [NADPH], in the assay on GLF_1777 (2KGR) [2], the Michaelis constant (Km) was 3 ± 0.4 µM.
